Data reported in PubChem BioAssay AID2060502 (Molecular Pharmacology Branch, DTP, NCI, 2025).

Test system: 885724-159-R-J1-PDC complex spheroid viability
Assay: Anticancer human tumor 885724-159-R-J1-PDC patient-derived pancreatic adenocarcinoma cell line growth inhibition [GQUAD]
Conditions: for IC50: curve of first compound; for viability, T/C: stronger effect = lower value
Summary of the method: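 Multi-cell-type spheroids of tumor cells with HUVEC and mesenchymal stem cells, treated with drug combinations. Concentrations descend in half-log steps from near clinical Cmax, or from 10 microM where Cmax is unknown; viability read-out.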

[1] = second compound 0.0316 µM, first compound 0.0316 µM
[2] = second compound 0.0316 µM, first compound 0.1 µM
[3] = second compound 0.0316 µM, first compound 0.316 µM
[4] = second compound 0.0316 µM, first compound 1 µM
[5] = second compound 0.0316 µM, first compound 3.16 µM
[6] = second compound 0.0316 µM, first compound 10 µM
[7] = second compound 0.1 µM, first compound 0.0316 µM
[8] = second compound 0.1 µM, first compound 0.1 µM
[9] = second compound 0.1 µM, first compound 0.316 µM
[10] = second compound 0.1 µM, first compound 1 µM
[11] = second compound 0.1 µM, first compound 3.16 µM
[12] = second compound 0.1 µM, first compound 10 µM
[13] = second compound 0.316 µM, first compound 0.0316 µM
[14] = second compound 0.316 µM, first compound 0.1 µM
[15] = second compound 0.316 µM, first compound 0.316 µM
[16] = second compound 0.316 µM, first compound 1 µM
[17] = second compound 0.316 µM, first compound 3.16 µM
[18] = second compound 0.316 µM, first compound 10 µM
[19] = second compound 1 µM, first compound 0.0316 µM
[20] = second compound 1 µM, first compound 0.1 µM
[21] = second compound 1 µM, first compound 0.316 µM
[22] = second compound 1 µM, first compound 1 µM
[23] = second compound 1 µM, first compound 3.16 µM
[24] = second compound 1 µM, first compound 10 µM
[25] = second compound 3.16 µM, first compound 0.0316 µM
[26] = second compound 3.16 µM, first compound 0.1 µM
[27] = second compound 3.16 µM, first compound 0.316 µM
[28] = second compound 3.16 µM, first compound 1 µM
[29] = second compound 3.16 µM, first compound 3.16 µM
[30] = second compound 3.16 µM, first compound 10 µM
[31] = second compound 10 µM, first compound 0.0316 µM
[32] = second compound 10 µM, first compound 0.1 µM
[33] = second compound 10 µM, first compound 0.316 µM
[34] = second compound 10 µM, first compound 1 µM
[35] = second compound 10 µM, first compound 3.16 µM
[36] = second compound 10 µM, first compound 10 µM
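Further: spheroids exposed to agents for seven days before readout.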
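Wherever viability, T/C is given: percent of vehicle control viability where 100% = DMSO wells.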

C=CC(=O)N1CCN(c2nc(=O)n(-c3c(C)ccnc3C(C)C)c3nc(-c4c(O)cccc4F)c(F)cc23)C(C)C1 (centres undefined) + Cc1cnc(CNC(=O)c2c(=O)c3ccc(N4CCCN(C)CC4)nc3n3c2sc2ccccc23)cn1
IC50 (second compound 0.0316 µM): > 10000 nM
IC50 (second compound 0.1 µM): > 10000 nM
IC50 (second compound 0.316 µM): > 10000 nM
IC50 (second compound 1 µM): > 10000 nM
IC50 (second compound 3.16 µM): > 10000 nM
IC50 (second compound 10 µM): > 10000 nM
viability, T/C [1]: 107%
viability, T/C [2]: 114%
viability, T/C [3]: 115%
viability, T/C [4]: 107%
viability, T/C [5]: 100%
viability, T/C [6]: 91.5%
viability, T/C [7]: 101%
viability, T/C [8]: 102%
viability, T/C [9]: 107%
viability, T/C [10]: 124%
viability, T/C [11]: 125%
viability, T/C [12]: 111%
viability, T/C [13]: 103%
viability, T/C [14]: 106%
viability, T/C [15]: 110%
viability, T/C [16]: 89.2%
viability, T/C [17]: 124%
viability, T/C [18]: 96%
viability, T/C [19]: 86.5%
viability, T/C [20]: 91%
viability, T/C [21]: 88.2%
viability, T/C [22]: 91.6%
viability, T/C [23]: 100%
viability, T/C [24]: 81%
viability, T/C [25]: 74.5%
viability, T/C [26]: 84%
viability, T/C [27]: 89.3%
viability, T/C [28]: 81.4%
viability, T/C [29]: 89.4%
viability, T/C [30]: 76.8%
viability, T/C [31]: 74.4%
viability, T/C [32]: 74%
viability, T/C [33]: 74.7%
viability, T/C [34]: 83.4%
viability, T/C [35]: 78%
viability, T/C [36]: 68.5%

O=C(NO)c1cnc(N2CCN(S(=O)(=O)c3ccc4ccccc4c3)CC2)nc1 + Cc1cnc(CNC(=O)c2c(=O)c3ccc(N4CCCN(C)CC4)nc3n3c2sc2ccccc23)cn1
IC50 (second compound 0.0316 µM): 549 nM
IC50 (second compound 0.1 µM): 450 nM
IC50 (second compound 0.316 µM): 437 nM
IC50 (second compound 1 µM): 434 nM
IC50 (second compound 3.16 µM): 182 nM
IC50 (second compound 10 µM): 183 nM
viability, T/C [1]: 77.4%
viability, T/C [2]: 83.3%
viability, T/C [3]: 65.4%
viability, T/C [4]: 31.2%
viability, T/C [5]: 13.7%
viability, T/C [6]: 0.25%
viability, T/C [7]: 117%
viability, T/C [8]: 79.7%
viability, T/C [9]: 56.6%
viability, T/C [10]: 40%
viability, T/C [11]: 10.4%
viability, T/C [12]: 0.28%
viability, T/C [13]: 102%
viability, T/C [14]: 78.9%
viability, T/C [15]: 63.3%
viability, T/C [16]: 26.1%
viability, T/C [17]: 12.7%
viability, T/C [18]: 0.32%
viability, T/C [19]: 80.5%
viability, T/C [20]: 70.4%
viability, T/C [21]: 60%
viability, T/C [22]: 28.4%
viability, T/C [23]: 9.39%
viability, T/C [24]: 0.18%
viability, T/C [25]: 80.6%
viability, T/C [26]: 59.6%
viability, T/C [27]: 39.8%
viability, T/C [28]: 23.7%
viability, T/C [29]: 0.23%
viability, T/C [30]: 0.18%
viability, T/C [31]: 60.2%
viability, T/C [32]: 58.5%
viability, T/C [33]: 42%
viability, T/C [34]: 20.5%
viability, T/C [35]: 0.26%
viability, T/C [36]: 0.22%
